Measured values published in article PMC2394453 (British Journal of Cancer, 2003).

Assay: Plasma pharmacokinetics of simvastatin and simvastatin hydroxy acid after oral simvastatin alone and combined with imatinib in CML patients (LC/MS/MS)
Details: for t1/2: simvastatin in plasma, mean±s.d., in h

- Tmax (both, human, plasma, po, 40 mg): 1 h
- Vd/F (both, human, plasma, po, 40 mg): 3120 ± 2750 L
- half-life (both, human, plasma, po, 40 mg): 1.4 h
- mean reduction of total-body clearance from plasma (CL/F) (simvastatin 40 mg coadministered with imatinib 400 mg, P<0.001): 70%
- t1/2 (40 mg simvastatin oral alone (day 1)): 1.4±0.8
- t1/2 (40 mg simvastatin oral plus 400 mg imatinib oral (day 8)): 2.7±1.3
Structure (SMILES): CCC(C)(C)C(=O)O[C@H]1C[C@@H](C)C=C2C=C[C@H](C)[C@H](CC[C@@H]3C[C@@H](O)CC(=O)O3)[C@H]21 [Simvastatin]
